# According to publication PMC3770654, “Gastric Antimicrobial Peptides Fail to Eradicate Helicobacter pylori Infection Due to Selective Induction and Resistance” (PLoS ONE, 2013):
# No end group written: not given here.
# Experiments:
# [1] = test system: E. coli ATCC 25922; test: Flow cytometric viability assay with membrane potential sensitive dye DiBAC4(3); format: cell-based; conditions: 20 µg/ml peptide, 1.5x10^6 bacteria/ml in Schaedler Broth 1:6, 37°C, 90 minutes, then DiBAC4(3) 10 minutes, 10000 events
# Method: (§1) The clinical isolate H. pylori KaE1 and the reference strains H. pylori DSM 9691, DSM 10242 and DSM 21031 were tested for susceptibility towards defensins, LL37 and elafin (amino acid sequences Table S1). The strain H. pylori DSM 10242 is positive for the virulence factors VacA and CagA. As control strain for antimicrobial activity served the sensitive E. coli ATCC 25922.
# (§2) Bacterial viability after incubation with antimicrobial peptides or biopsy extracts was analyzed with the membrane potential sensitive dye DiBAC4(3) (bis-(1,3-dibutylbarbituric acid) trimethine oxonol) (Invitrogen, Carlsbad, CA, USA) as described previously. Briefly, 1.5x10^6 mid-logarithmic-phase bacteria/ml of H. pylori or E. coli in Schaedler Broth 1:6 were incubated with 20 µg/ml HBD1-4 (Peptide Institute, Osaka, Japan), elafin (Proteo Biotech, Kiel, Germany for FACS analysis and RDA and elafin from Peptide Institute, Osaka for CFU determination), with LL37 (Innovagen, Lund, Sweden) or with 10 µg total protein of antrum biopsy extracts at 37°C. After 90 minutes 1 µg/ml DiBAC4(3) was added to the suspensions and further incubated for 10 minutes. Then, the suspensions were centrifuged with 4500 x g for 10 minutes, pellets resuspended in 300 µl PBS and bacterial fluorescence was analyzed by a FACSCalibur^TM (BD, Sparks, USA), using Cell Quest software (BD, Sparks, USA). In each sample 10000 bacterial events were analyzed for green fluorescence and the antimicrobial activity was determined as percentage of depolarized, fluorescent bacteria. Inhibition of bacterial growth was tested by plating aliquots on Columbia blood agar and incubating at 37 C° for 2 days in a microaerophilic atmosphere with CampyGen (Oxoid, Hampshire, UK). Then colony forming units (CFU) were counted.
# [2] = test system: H. pylori KaE1, DSM 9691, DSM 10242 and DSM 21031; test: Flow cytometric viability assay with DiBAC4(3), four H. pylori strains; format: cell-based; conditions: all 4 H. pylori strains; 20 µg/ml peptide, Schaedler Broth 1:6, 37°C, 90 minutes, DiBAC4(3)
# Method: as §1
# (§3) H. pylori strains were cultured on Columbia blood agar at 37 C° for 2 days in a microaerophilic atmosphere with CampyGen (Oxoid, Hampshire, UK). Subsequently the bacteria were suspended in Schaedler Broth (BD, Sparks, USA) diluted 1:6 with aqua dest. for incubation with antimicrobial peptides.
# as §2
# [3] = test system: H. pylori DMS 9691; test: Plating on Columbia blood agar with CFU counting; format: cell-based; conditions: peptide 20 µg/ml, means of two independent experiments, control 8.85 x 10^5
# Method: as §3, §2
# [4] = test system: H. pylori DSM 10242; test: Plating on Columbia blood agar with CFU counting; format: cell-based; conditions: peptide 20 µg/ml, means of two independent experiments, control 6.10 x 10^5
# Method: as §3, §2
# [5] = test system: H. pylori DSM 21031; test: Plating on Columbia blood agar with CFU counting; format: cell-based; conditions: peptide 20 µg/ml, means of two independent experiments, control 7.45 x 10^5
# Method: as §3, §2
# [6] = test system: H. pylori KaE; test: Plating on Columbia blood agar with CFU counting; format: cell-based; conditions: peptide 20 µg/ml, means of two independent experiments, control 1.42 x 10^6
# Method: as §3, §2
# [7] = test system: H. pylori KaE1, DSM 9691, DSM 10242 and DSM 21031; test: Radial diffusion assay, four H. pylori strains; format: cell-based; conditions: all four Helicobacter strains; 20 µg peptide per well, 3 days, 37 °C, microaerophilic
# Method: Additionally to determine inhibition of bacterial growth we performed radial diffusion assays with a modified protocol of the procedure from Robert Lehrer et al.. Briefly, H. pylori was grown on Columbia blood agar (BD, Sparks, USA), suspended in Brain Heart Infusion diluted 1:5 with aqua dest. and plated on an agar containing 20% brain heart infusion with 5% fetal calf serum. Wells with 3 mm diameter were punched into the agar and peptides were applied equivalent to the flow cytometric assay in a concentration of 20 µg per well. The agar plates were incubated for 3 days at 37 °C in a microaerophilic atmosphere with CampyGen.
# [8] = test system: H. pylori; conditions: ref 21 George et al., cited from earlier work
# From the text: Previously, Hase et al. had tested two H. pylori strains against the antimicrobials HBD1, HBD2 and LL37 and […], one strain tested was resistant to HBD1, while the second strain was sensitive. […] In the study by Hase et al. […] Th ...
# [9] = test system: H. pylori DSM 10242; test: Flow cytometric viability assay with DiBAC4(3); format: cell-based; conditions: 20 µg/ml peptide, 37°C, 90 minutes
# Method: as §1, §3
# (§4) Bacterial viability after incubation with antimicrobial peptides or biopsy extracts was analyzed with the membrane potential sensitive dye DiBAC4(3) (bis-(1,3-dibutylbarbituric acid) trimethine oxonol) (Invitrogen, Carlsbad, CA, USA) as described previously. […] Then, the suspensions were centrifuged with 4500 x g for 10 minutes, pellets resuspended in 300 µl PBS and bacterial fluorescence was analyzed by a FACSCalibur^TM (BD, Sparks, USA), using Cell Quest software (BD, Sparks, USA). In each sample 10000 bacterial events were analyzed for green fluorescence and the antimicrobial activity was determined as percentage of depolarized, fluorescent bacteria. […] Then colony forming units (CFU) were counted.
# [10] = test system: H. pylori KaE1; test: Flow cytometric viability assay with DiBAC4(3); format: cell-based; conditions: 20 µg/ml peptide, 37°C, 90 minutes
# Method: as §1, §3, §4
# [11] = test system: H. pylori KaE1; test: Transmission electron microscopy of peptide-treated bacteria; format: cell-based; conditions: H. pylori KaE1, 1.5x10^8 bacteria, 200 µg peptide/ml, 2 hours
# Method: For electron microscopy 1.5x10^8 bacteria were incubated with 200 µg peptide/ml for 2 hours. Subsequently bacteria were fixed with Karnovsky solution, embedded in agarose, coagulated, cut in blocks and fixed once more in Karnovsky. After post fixation and embedding in glycid ether the specimen were cut with an ultra microtome. Sections of 30 nm were rinsed on copper grids and investigated with a Zeiss LIBRA 120 transmission electron microscope.
# [12] = test system: E. coli ATCC 25922; test: Binding of antimicrobial peptides to bacterial cells (flow cytometry, Streptavidin-PE); conditions: 20 µg/ml biotinylated LL37 or 20 µg/ml HBD2 with biotinylated HBD2-antibody, 30 minutes
# Method: (§5) To investigate whether HBD2 and LL37 bind to the bacterial cell membrane, we incubated E. coli or H. pylori in Schaedler Broth 1:6 with 20 µg/ml biotinylated LL37 (Innovagen, Lund, Sweden) or 20 µg/ml HBD2 (Peptide Institute, Osaka, Japan) for 30 minutes. After centrifugation a biotinylated HBD2-antibody was added to the in PBS resuspended pellet of the HBD2 samples (Peprotech, Hamburg, Germany). Following washing with PBS, binding of biotinylated LL37 or of the HBD2-antibody was detected with Streptavidin-PE (BD Biosciences, Heidelberg, Germany). Suspensions incubated with HBD2 antibody and Streptavidin served as control. Fluorescence 2 of 10 000 events was measured with the FACSCalibur.
# [13] = test system: H. pylori; test: as above; conditions: 20 µg/ml biotinylated LL37 or 20 µg/ml HBD2 with biotinylated HBD2-antibody, 30 minutes
# Method: as §5
Substance,depolarized bacteria [1] [%],depolarized bacteria [2],Colony forming units [3],Colony forming units [4],Colony forming units [5],Colony forming units [6],zones of inhibition in radial diffusion assay [7],eradication (CFU) ([8]; 10^-5 M recombinant HBD1 in hypotonic buffer),reduction of CFU ([8]; 10^-7 M recombinant HBD1 in hypotonic buffer),depolarization level [9] [%],depolarization level [10] [%],disintegration of bacterial cells (electron microscopy) [11],effectiveness against H. pylori among defensins [8],binding to the bacterial surface [12],binding to the bacterial surface [13]
"Asp - His - Tyr - Asn - Cys - Val - Ser - Ser - Gly - Gly - Gln - Cys - Leu - Tyr - Ser - Ala - Cys - Pro - Ile - Phe - Thr - Lys - Ile - Gln - Gly - Thr - Cys - Tyr - Arg - Gly - Lys - Ala - Lys - Cys - Cys - Lys (disulfide) [HBD1, recombinant constitutive defensin HBD1 (gene name DEFB1), Peptide Institute, Osaka]",37,less than 5%,8.61 x 10^5 CFU/ml,6.85 x 10^5 CFU/ml,7.15 x 10^5 CFU/ml,1.32 x 10^6 CFU/ml,no zones of inhibition,absolute eradication,about 50%,,,,,,
"ELDRICGYGTARCRKKCRSQEYRIGRCPNTYACCLRK (disulfide (positions not given here)) [HBD4, recombinant defensin HBD4 (DEFB104A), Peptide Institute, Osaka]",43,,8.25 x 10^5 CFU/ml,4.95 x 10^5 CFU/ml,6.90 x 10^5 CFU/ml,1.26 x 10^6 CFU/ml,no zones of inhibition,,,12,8,,,,
"Gly - Ile - Ile - Asn - Thr - Leu - Gln - Lys - Tyr - Tyr - Cys - Arg - Val - Arg - Gly - Gly - Arg - Cys - Ala - Val - Leu - Ser - Cys - Leu - Pro - Lys - Glu - Glu - Gln - Ile - Gly - Lys - Cys - Ser - Thr - Arg - Gly - Arg - Lys - Cys - Cys - Arg - Arg - Lys - Lys (disulfide) [HBD3, recombinant inducible defensin HBD3 (DEFB103A), Peptide Institute, Osaka]",90,34-78%,0.20 x 10^5 CFU/ml,1.14 x 10^5 CFU/ml,1.55 x 10^5 CFU/ml,0.08 x 10^6 CFU/ml,pronounced zones,,,,,more pronounced disintegration,most effective against H. pylori,,
"Leu - Leu - Gly - Asp - Phe - Phe - Arg - Lys - Ser - Lys - Glu - Lys - Ile - Gly - Lys - Glu - Phe - Lys - Arg - Ile - Val - Gln - Arg - Ile - Lys - Asp - Phe - Leu - Arg - Asn - Leu - Val - Pro - Arg - Thr - Glu - Ser [LL37, amphipathic α-helical cathelicidin LL37 (CAMP), Innovagen, Lund]",87,62-85%,0.35 x 10^5 CFU/ml,0.15 x 10^5 CFU/ml,0.41 x 10^5 CFU/ml,0.09 x 10^6 CFU/ml,pronounced zones,,,,,,,accumulated on the surface,accumulated on the surface
